Data as given in publication PMC6983514 (British Journal of Clinical Pharmacology, 2020).
“And” between values parts separate entries of the source, which are not always exact repeats. Identical values can stand only once. Like-named read-outs stand apart in the source and are kept apart here.

Tests used:
[1] = tested on: 3‐hydroxy‐3‐methyl‐glutaryl‐coenzyme A reductase (HMGCR); details: background statement in introduction; cited from earlier work
[2] = Genotype-stratified analysis: loop diuretic association with endpoints by ABCG2 rs2231142 (Q141K); assay type: in vivo, human; details: adjusted
Procedure: (§1) Exploratory genotype‐stratified analyses were carried out to further assess key identified drug–drug interactions. Specifically, the adjusted association of PPIs with endpoints was determined following cohort stratification by CYP2C19 predicted metaboliser status, because PPIs are metabolised by CYP2C19.22, 23 CYP2C19 was stratified by *2 (rs4244285; directly genotyped) and *17 (rs12248560; imputed) diplotypes into: extensive (EM, *1/*1), intermediate (IM, *1/*2 or *2/*17), poor (PM, *2/*2), rapid (RM, *1/*17) and ultra‐rapid metabolisers (UM, *17/*17). Due to the small number of PM (n = 10) and UM (n = 24) patients, PMs were combined with IMs, and UMs with RMs, for analysis. […] Secondly, the impact of https://www.guidetopharmacology.org/GRAC/ObjectDisplayForward?objectId=792 rs2231142 (Q141K; imputed) on the adjusted associations of loop diuretics with the endpoints was considered.
(§2) The sensitivity and genotype‐stratified analyses were only conducted on those endpoints where the perpetrator comedication of interest had been included in the endpoint's main analysis model, and P < .05 was taken to indicate significance. All statistical testing was carried out in the R computing environment,26 except for the secondary stepwise analysis that was undertaken in IBM SPSS version 22.0 (IBM Corp, Armonk, NY, USA); boxplots were produced in GraphPad Prism (version 5.00 for Windows: GraphPad Software Inc., San Diego, USA).

[3] = Main analysis: all subsets multivariable linear regression with BIC model averaging of clinical factors/comedications on ATV analyte levels, ratios and sum total; assay type: in vivo, human; details: log10 transformed plasma concentration, model averaged coefficient
Description: All variables were considered in model selection (see below) except hypertension, hyperlipidaemia, and prior CVD.
Prior to modelling, all endpoints were log10 transformed to normalise the distribution of (observed) residuals and optimise homoscedasticity.
Third, the derived models were ranked according to the Bayesian information criterion (BIC), which is more conservative than the corrected Akaike information criterion because BIC carries a larger penalty for increasing model complexity.19 Fourth, all models with a BIC within 2 of the model with the lowest BIC (BIC Δ < 2) underwent model averaging to produce model averaged (unstandardised) coefficients and standard errors for all the covariates included in this set of models, to enable multimodel inferences. The model selection constraint of Δ < 2 was chosen because the empirical evidence supporting each of these models is considered essentially equivalent.19 Conditional averaging was used, and so for a given covariate, its coefficient and standard error were averaged from only those models with BIC Δ < 2 that contained the covariate.20 This approach was taken because of the interest in assessing the relationship between individual covariates and the endpoints, with overall model predictive capability of secondary importance.21 The relative importance of each of the selected covariates to the endpoint was assessed by summing the BIC‐derived model weight for all models that underwent model averaging and contained the covariate. The P‐value for each covariate in the final model is provided for reference only. The utility of the final produced model for describing the observed variation in the endpoint was assessed using the unadjusted R^2 value. This process was undertaken for all endpoints. The above described covariate selection and model averaging was carried out using the R statistical package, MuMIn. 20

[4] = Plasma concentrations of ATV and metabolites by HPLC-MS/MS in NSTE-ACS patients at V2 (1 month); assay type: in vivo, human; details: for concentration at […] / concentration at 1 month: human, plasma, oral; for concentration at […]: plasma at V2, median […] since last ATV (estimated), read-out: Conc (ng/mL), median (IQR); for concentration at 1 month: median ATV concentration, unadjusted
Description: This investigation harnessed the Pharmacogenetics of Acute Coronary Syndrome (PhACS) study, described previously.13 Briefly, PhACS was a UK multicentre prospective observational study that recruited 1470 eligible patients hospitalised with an NSTE‐ACS between 2008–2012 and followed them up at 1 (V2) and 12 (V3) months. Demographic, comorbidity and prescription information was collected at baseline; drug use, drug adherence, and new clinical events were captured during follow up. PhACS participants were genotyped using the Illumina HumanOmniExpressExome‐8 v1.0 BeadChip at Edinburgh Genomics (Roslin Institute, Scotland).
Briefly, 50‐μL plasma samples were first mixed with 20 μL of a composite internal standard solution containing a deuterated internal standard for each analyte, and then diluted further by addition of 180 μL 100% acetonitrile containing 0.3% acetic acid. Following centrifugation, the supernatant was diluted 1:2 in water and a 5‐μL aliquot injected for analysis. Analytes were separated using a 2.7‐μm Halo C18 column (50 × 2.1 mm ID, 90 Å, Hichrom Limited, Reading, UK, part number: 92812–402) with gradient elution, housed within a Shimadzu Nexera X2 modular system (Kyoto, Japan). Analytes were detected in low mass positive ionisation mode using multiple reaction monitoring (Sciex triple quadrupole 6500 QTRAP mass spectrometer with a Turbo electrospray source, AB Sciex, Warrington, UK). […] Calibration and quality control (QC) samples were prepared in pooled healthy human volunteer K3 EDTA plasma (Sera Laboratories International, West Sussex, UK).

[5] = Genotype-stratified analysis: PPI association with endpoints by CYP2C19 predicted metaboliser status; assay type: in vivo, human; details: adjusted
Procedure: as §1, §2

[6] = tested on: breast cancer resistance protein (BCRP, encoded by ABCG2); details: cited from earlier work
[7] = cited from earlier work
[8] = ABCG2 rs2231142 WT (n = 435), on LD n = 74
[9] = ABCG2 rs2231142 variant carrier (n = 136), on LD n = 22
[10] = CYP2C19 EM (n = 233), on PPI n = 88
[11] = CYP2C19 PM/IM (n = 152), on PPI n = 58
[12] = CYP2C19 RM/UM (n = 186), on PPI n = 83

Row | SMILES | activity against HMGCR [1] | B (SE), Loop diuretic on analyte level [2, 8] | B (SE), Loop diuretic on analyte level [2, 9] | B (SE), ATV dose on analyte level [3] | B (SE), Body mass index on analyte level [3] | B (SE), Loop diuretic on analyte level [3] | B (SE), Proton pump inhibitor on analyte level [3] | B (SE), Sample storage duration on analyte level [3] | B (SE), Time since last ATV on analyte level [3] | concentration at […] ([4]; 40 mg daily, 40 mg ATV daily) | concentration at […] ([4]; 80 mg daily, 80 mg ATV daily) | B (SE), Proton pump inhibitor on analyte level [5, 10] | B (SE), Proton pump inhibitor on analyte level [5, 11] | B (SE), Proton pump inhibitor on analyte level [5, 12] | B (SE), Age on analyte level [3] | also measured
1 | CC(C)c1c(C(=O)Nc2ccc(O)cc2)c(-c2ccccc2)c(-c2ccc(F)cc2)n1CCC1CC(O)CC(=O)O1 (centres unmarked) [4‐OH ATV L] | inactive |  |  |  |  |  |  |  |  |  |  |  |  |  |  | 
2 | CC(C)c1c(C(=O)Nc2ccccc2)c(-c2ccccc2)c(-c2ccc(F)cc2)n1CCC1CC(O)CC(=O)O1 (centres unmarked) [ATV L] |  | 0.149 (0.048) | 0.077 (0.089) | 0.222 (0.064) | −0.006 (0.003) | 0.121 (0.043) | 0.139 (0.033) | 0.0002 (0.00004) | −0.0007 (0.0001) | 2.51 ng/mL | 3.97 ng/mL | 0.076 (0.050) | 0.084 (0.070) | 0.232 (0.053) |  | B (SE), Amiodarone on analyte level [3]: 0.320 (0.142); B (SE), Sex (F vs M) on analyte level [3]: −0.097 (0.038)
3 | CCCCNc1cc(C(=O)O)cc(S(N)(=O)=O)c1Oc1ccccc1 [bumetanide] |  |  |  |  |  |  |  |  |  |  |  |  |  |  |  | inhibition of BCRP in vitro [6]: inhibit
4 | CC(C)c1c(C(=O)Nc2ccccc2O)c(-c2ccccc2)c(-c2ccc(F)cc2)n1CCC1CC(O)CC(=O)O1 (centres unmarked) [2‐OH ATV L] | inactive | 0.102 (0.040) | 0.044 (0.075) | 0.215 (0.051) | −0.006 (0.002) | 0.084 (0.035) | 0.106 (0.026) | 0.0001 (0.00003) | −0.0006 (0.0001) | 4.24 ng/mL | 7 ng/mL | 0.065 (0.039) | 0.018 (0.057) | 0.199 (0.042) | 0.006 (0.001) | B (SE), Hepatic disease on analyte level [3]: −0.289 (0.134)
5 | CC(C)c1c(C(=O)Nc2ccccc2O)c(-c2ccccc2)c(-c2ccc(F)cc2)n1CC[C@@H](O)C[C@@H](O)CC(=O)O [2‐OH ATV] |  | 0.072 (0.039) | −0.051 (0.077) | 0.212 (0.048) | −0.006 (0.002) | 0.074 (0.033) | 0.062 (0.024) | −0.0001 (0.00003) | −0.0007 (0.0001) | 5.35 ng/mL | 6.93 ng/mL | 0.045 (0.038) | 0.032 (0.050) |  | 0.007 (0.001) | B (SE), Smoking on analyte level ([3]; current vs previous/never): −0.076 (0.028); B (SE), Chronic kidney disease on analyte level [3]: 0.111 (0.051); B (SE), Diabetes mellitus on analyte level [3]: 0.079 (0.031)
6 | CC(C)c1c(C(=O)Nc2ccccc2)c(-c2ccccc2)c(-c2ccc(F)cc2)n1CC[C@@H](O)C[C@@H](O)CC(=O)O [ATV, atorvastatin, reference compound] | inhibit | 0.121 (0.044) | 0.041 (0.086) | 0.153 (0.058) |  | 0.099 (0.040) | 0.093 (0.030) |  | −0.001 (0.0001) | 3.96 ng/mL | 5.22 ng/mL | 0.052 (0.045) | 0.046 (0.061) | 0.162 (0.050) | 0.004 (0.001) | B (SE), Amiodarone on analyte level [3]: 0.282 (0.129); concentration at 1 month ([4]; patients not on a PPI): 4.9 ng/mL; concentration at 1 month ([4]; patients not on a loop diuretic): 4.9 ng/mL; concentration at 1 month ([4]; patients on a PPI): 5.6 ng/mL; concentration at 1 month ([4]; patients on a loop diuretic): 6.8 ng/mL; increase in median ATV concentration ([4]; with PPIs vs without): 14% and ~ 14%; increase in median ATV concentration ([4]; with loop diuretics vs without): 38% and ~ 38%; fraction of an ATV dose excreted through the kidneys [7]: < 2%
7 | CC(C)c1c(C(=O)Nc2ccc(O)cc2)c(-c2ccccc2)c(-c2ccc(F)cc2)n1CC[C@@H](O)C[C@@H](O)CC(=O)O [4‐OH ATV] | inhibit |  |  |  |  |  |  |  |  |  |  |  |  |  |  | 
